Our source for the IC50 values is patent US9718771B2, “Aniline derivative, pharmaceutical composition containing same, and use thereof” (Kissei Pharmaceutical Co., Ltd., priority 2014, dated 2017).

The structures appear in SMILES notation. pIC50: −log10 of the molar value.

One may read the pIC50 as the negative decadic logarithm of the IC50, by convention in mol/L. The low end stands for a large IC50, the high end for a small IC50.

human S1P1 (EDG-1), sequence (P21453 whole entry): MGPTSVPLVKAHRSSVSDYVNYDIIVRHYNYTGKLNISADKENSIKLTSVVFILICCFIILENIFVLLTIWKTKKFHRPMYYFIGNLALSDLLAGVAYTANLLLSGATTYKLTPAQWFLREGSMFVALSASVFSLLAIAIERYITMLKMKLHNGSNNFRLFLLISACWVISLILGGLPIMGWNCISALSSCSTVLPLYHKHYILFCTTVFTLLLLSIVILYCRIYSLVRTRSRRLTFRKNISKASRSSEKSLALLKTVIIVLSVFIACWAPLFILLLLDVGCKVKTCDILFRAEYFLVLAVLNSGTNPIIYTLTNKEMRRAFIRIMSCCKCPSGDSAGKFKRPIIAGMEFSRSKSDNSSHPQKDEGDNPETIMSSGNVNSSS

The assay has as its target human S1P1 (EDG-1) (Homo sapiens (Human), UniProt P21453). As to the kind of experiment: Confirmation test of antagonistic activity for human S1P1 receptor (35S-GTP binding, cell membranes). The class given is biochemical. To be noted: inhibition of 35S-GTP binding induced by S1P1 receptor selective agonist; HEK293 membranes expressing human S1P1. The procedure:
Confirmation Test of Antagonistic Activity for Human S1P1 Receptor
Test compounds were tested by reduction of functional binding activity of ^35S-GTP (guanosine 5′-O-[gamma-thio] triphosphate, PerkinElmer) to G protein using cell membranes expressing human S1P1 (EDG-1). S1P1-pcDNA3.1/V5-His-Topo vector was prepared by inserting cDNA (NM_001400) encoding human S1P1 into the expression vector, pcDNA3.1/V5-His-Topo (registered trademark) (Invitrogen). Next, the above S1P1-pcDNA3.1 vector was transfected into HEK293 cells by Lipofectamine2000 (registered trademark) (Invitrogen). The transfected cells were incubated with D-MEM liquid medium each containing 10% FBS (Fetal bovine serum), 100 U/mL penicillin, 100 μg/mL streptomycin and 1 mg/mL Geneticin (registered trademark) (Invitrogen) in an incubator under the condition of 5% CO2 at 37° C. and Geneticin (registered mark)-resistant cell line stably expressing S1P1 were obtained. The obtained stably S1P1-expressing cells were incubated with D-MEM liquid medium each containing 10% FBS and 0.5 mg/mL Geneticin (registered trademark) in an incubator under the condition of 5% CO2 at 37° C. The cells grown to confluence were harvested by a buffer solution containing 50 mM Tris, 2 mM EDTA (ethylmediaminetetraacetic acid) and 125 mM sodium chloride, and centrifuged at 1880×g, 4° C. for 10 minutes. After a supernatant was removed, a cell pellet was resuspended by the same buffer solution. For making cell membranes fragile, this cell suspension was frozen at −80° C. and then thawed. The cells were centrifuged at 1880×g, 4° C. for 10 minutes, and a supernatant was removed. The cell pellet was suspended by adding the same buffer solution and a fracture solution (10 mM sodium bicarbonate and 5 mM EDTA, pH 7.5) at a ratio of 2:1. The cells were fractured by subjecting the cell suspension to ultrasonication, and a cell membrane fraction was isolated by centrifugation at 1880×g, 4° C. for 10 minutes and ultracentrifugation of the supernatant at 80000×g, 4° C. for 30 minutes. A pellet of the cell membrane fraction was suspended by the fracture solution containing protease inhibitor cocktail (Roche) and stored at −80° C. until use. A protein concentration of the cell membrane fraction was determined using BCA Protein Assay Kit (Pierce) in accordance with an attached protocol.
Inhibitory activity evaluation was performed by multi-screen (registered trademark) HTS 96-well plate (Millipore) using the cell membrane fraction stably expressing S1P1 obtained by the above operation. 25 μL of assay solution (50 mM Tris, 100 mM sodium chloride, 5 mM magnesium chloride, 1 mM EDTA, 1 mM DTT (dithiothreitol), 10 μM GDP (guanosine diphosphate) and 0.5% BSA (bovine serum albumin), pH 7.4), 25 μL of test compounds solution diluted by assay solution and 25 μL of the membrane fraction (0.2 μg protein/μL) were added to each well, and the mixture was gently shaken at room temperature: for 30 minutes. Then, 25 μL of ^35S-GTP, and 25 μL of 50 nM S1P1 receptor selective agonist (1-[4-(4-phenyl-5-trifluoromethylthiophen-2-ylmethoxy)benzyl]azetidine-3-carboxylic acid, “J. Med. Chem.”, 2004, vol. 47, pp. 6662-6665, compound 18) were added to each well, respectively, and it was reacted at room temperature for 60 minutes. After the reaction, a reaction solution of each well was suction-filtered. After suction filtration, ice-colded wash solution (50 mM Tris, 100 mM sodium chloride, […] and 1 mM EDTA, pH 7.4) was added to each well, and moreover filters were washed by suction filtration. This wash procedure was performed three times. A bottom of the plate containing the filters was dried at 60° C. After drying, 30 μL of MicroScinti-40 (PerkinElmer) was added to each well, and the radioactivity adsorbed on the filter was determined by TopCount NXT (registered trademark) (PerkinElmer) after shaking for 30 minutes at room temperature. […]
The compound `CCN(c1cccc(Cl)c1)C(C)c1ccc(C)c(CN2CC(C(=O)O)C2)c1` (centres unmarked) [Compound 2-49] showed a pIC50 of 9.05.
As to `CC(c1ccc(Cl)c(CN2CC(C(=O)O)C2)c1)N(C)c1ccc(Cl)c(C(F)(F)F)c1` (centres unmarked) [Compound 2-33, 1-(2-Chloro-5-{1-[(4-chloro-3-trifluoromethylphenyl)(methyl)amino]-ethyl}benzyl)azetidine-3-carboxylic acid], the pIC50 is 8.11. Compared with the last compound, the pIC50 is 0.94 log units lower.
Regarding `Cc1cc(N(C)Cc2cccc(CN3CC(C(=O)O)C3)c2)ccc1Cl` [Compound 1-2], the negative logarithm of the IC50 (pIC50) was 8.12. The pIC50 values of the last two compounds are within 0.2 log units of each other.
To `CCN(c1ccc(Cl)c(C)c1)C(C)c1cc(Cl)cc(CN2CC(C(=O)O)C2)c1` (centres unmarked) [Compound 2-29] belongs 8.92.
To `Cc1cc(N(C)Cc2ccc(C)c(CN3CC(C(=O)O)C3)c2)ccc1Cl` [Compound 2-2] belongs 8.17.
Consider `CCN(c1ccc(Cl)c(C)c1)C1CCc2c1ccc(OC)c2CN1CC(C(=O)O)C1` (centres unmarked) [Compound 2-18], for which the negative logarithm of the IC50 (pIC50) was 8.33.
To `CCN(c1ccc(Cl)c(C)c1)C1CCc2c(CN3CC(C(=O)O)C3)cccc21` (centres unmarked) [Compound 6-3] belongs 8.55; to `Cc1ccc2c(c1CN1CC(C(=O)O)C1)CCC2N(C)c1ccc(Cl)c(C(F)(F)F)c1` (centres unmarked) [Compound 2-10, 1-{1-[(4-Chloro-3-trifluoromethylphenyl)(methyl)amino]-5-methylindan-4-ylmethyl}azetidine-3-carboxylic acid], 8.60.
For the compound `CCN(c1ccc(Cl)c(C(F)(F)F)c1)C(CO)c1ccc(C)c(CN2CC(C(=O)O)C2)c1` (centres unmarked) [Compound 6-2], the pIC50 was 8.60.
To `CCN(c1ccc(Cl)c(C)c1)[C@H](C)c1cccc(CN2CC(C(=O)O)C2)c1` [Compound 6-5] belongs 8.92; to `Cc1ccc(C(C)N(C)c2ccc(C#N)c(C(F)(F)F)c2)cc1CN1CC(C(=O)O)C1` (centres unmarked) [Compound 2-44], 8.05.
To `Cc1cc(CN2CC(C(=O)O)C2)c2c(c1)C(N(C)c1ccc(Cl)c(C)c1)CC2` (centres unmarked) [Compound 2-9] belongs 7.65; to `CCN(c1ccc(Cl)c(C(F)(F)F)c1)C(C)c1ccc(Cl)c(CN2CC(C(=O)O)C2)c1` (centres unmarked) [Compound 2-34, 1-(2-Chloro-5-{1-[(4-chloro-3-trifluoromethylphenyl)(ethyl)amino]ethyl}-benzyl)azetidine-3-carboxylic acid], 8.82.
To `Cc1cc(N(C)C2CCc3c(CN4CC(C(=O)O)C4)cccc32)ccc1Cl` (centres unmarked) [Compound 2-17] belongs 7.56; to `Cc1ccc(C(C)N(C)c2ccc(Cl)c(C(F)(F)F)c2)cc1CN1CC(C(=O)O)C1` (centres unmarked) [Compound 2-25, 1-(5-{1-[(4-Chloro-3-trifluommethylphenyl)(methyl)amino]ethyl}-2-methylbenzyl)azetidine-3-carboxylic acid], 8.17.
Consider `CCC(c1ccc(C)c(CN2CC(C(=O)O)C2)c1)N(CC)c1ccc(Cl)c(C)c1` (centres unmarked) [Compound 2-46, 1-(5-{1-[(4-Chloro-3-methylphenyl)(ethyl)amino]propyl}-2-methylbenzyl)-azetidine-3-carboxylic acid], for which the negative logarithm of the IC50 (pIC50) was 8.72. This pIC50 lies 0.55 log units higher than the previous one.
To `CCN(c1ccc(Cl)c(C)c1)C1CCc2c1ccc(F)c2CN1CC(C(=O)O)C1` (centres unmarked) [Compound 2-15, 1-{1-[(4-Chloro-3-methylphenyl)(ethyl)amino]-5-fluoroindan-4-ylmethyl}-azetidine-3-carboxylic acid] belongs 8.60.
Compound `Cc1cc(N(C)C(C)c2ccc(C)c(CN3CC(C(=O)O)C3)c2)ccc1Cl` (centres unmarked) [Compound 2-13] gave a negative logarithm of the IC50 (pIC50) of 7.67.
`CCN(c1ccc(Cl)c(C)c1)C1CCCc2c(CN3CC(C(=O)O)C3)cccc21` (centres unmarked) [Compound 3-7] gave a negative-log IC50 (pIC50) of 7.89.
The compound `CCN(Cc1cccc(CN2CC(C(=O)O)C2)c1C)c1ccc(Cl)c(C)c1` [Compound 2-4] gave a pIC50 of 8.41.
The compound `CCN(Cc1ccc(C)c(CN2CC(C(=O)O)C2)c1C)c1ccc(Cl)c(C)c1` [Compound 2-11] gave a pIC50 of 8.96.
To `CCN(c1ccc(Cl)c(C)c1)C(C)c1ccc(OC)c(CN2CC(C(=O)O)C2)c1` (centres unmarked) [Compound 2-30] belongs 8.16.
`Cc1cc(N(Cc2ccc(C)c(CN3CC(C(=O)O)C3)c2)C(C)C)ccc1Cl` [Compound 2-3] had a negative logarithm of the IC50 (pIC50) of 8.55.
Compound `CCC(c1cccc(CN2CC(C(=O)O)C2)c1)N(CC)c1ccc(Cl)c(C)c1` (centres unmarked) [Compound 2-12] showed a pIC50 of 8.17. Against the preceding compound, the pIC50 is 0.38 log units lower.
To `C=Cc1ccc(C(C)N(CC)c2ccc(Cl)c(C(F)(F)F)c2)cc1CN1CC(C(=O)O)C1` (centres unmarked) [Compound 4-1, 1-(5-{1-[(4-Chloro-3-trifluoromethylphenyl)(ethyl)amino]ethyl}-2-vinylbenzyl)-azetidine-3-carboxylic acid] belongs 8.92.
To `CCN(c1ccc(Cl)c(C)c1)C(C)c1ccc(Cl)c(CN2CC(C(=O)O)C2)c1` (centres unmarked) [Compound 2-32, 1-(2-Chloro-5-{1-[(4-chloro-3-methylphenyl)(ethyl)amino]ethyl}benzyl)-azetidine-3-carboxylic acid] belongs 8.96; to `Cc1ccc(C(C)N(CCO)c2ccc(Cl)c(C(F)(F)F)c2)cc1CN1CC(C(=O)O)C1` (centres unmarked) [Compound 2-37], 8.07; to `CCN(c1ccc(Cl)c(C(F)(F)F)c1)C1CCc2c(CN3CC(C(=O)O)C3)cccc21` (centres unmarked) [Compound 2-24], 8.43.
To `CCN(Cc1ccc(C)c(CN2CC(C(=O)O)C2)c1)c1ccc(Cl)c(C)c1` [Compound 2-1, 1-(5-{[(4-Chloro-3-methylphenyl)(ethyl)amino]methyl}-2-methylbenzyl)azetidine-3-carboxylic acid] belongs 8.28; to `CCN(c1cc(C(F)(F)F)cc(C(F)(F)F)c1)C(C)c1ccc(C)c(CN2CC(C(=O)O)C2)c1` (centres unmarked) [Compound 4-2], 8.51; to `CCN(c1ccc(Cl)c(C)c1)C1CCc2c1ccc(C)c2CN1CC(C(=O)O)C1` (centres unmarked) [Compound 2-21, 1-{1-[(4-Chloro-3-methylphenyl)(ethyl)amino]-5-methylindan-4-ylmethyl}-azetidine-3-carboxylic acid], 8.72.
Turning to `CCN(c1ccc(Cl)c(C)c1)C1CCc2c(CN3CC(C(=O)O)C3)cc(C)cc21` (centres unmarked) [Compound 2-22], the negative-log IC50 (pIC50) was 8.30.
For the compound `Cc1ccc2c(c1CN1CC(C(=O)O)C1)CCC2N(CCO)c1ccc(Cl)c(C(F)(F)F)c1` (centres unmarked) [Compound 2-39], the pIC50 is 8.47.
With `CCN(c1ccc(Cl)c(C)c1)C1CCc2c(CN3CC(C(=O)O)C3)cc(F)cc21` (centres unmarked) [Compound 2-16], the negative-log IC50 (pIC50) is 8.48.
To `CCN(Cc1cccc(CN2CC(C(=O)O)C2)c1)c1ccc(Cl)c(C)c1` [Compound 3-1, 1-(3-{[(4-Chloro-3-methylphenyl)(ethyl)amino]methyl}benzyl)azetidine-3-carboxylic acid] belongs 8.05; to `CCC(c1ccc(C)c(CN2CC(C(=O)O)C2)c1)N(CC)c1ccc(Cl)c(C(F)(F)F)c1` (centres unmarked) [Compound 2-45, 1-(5-{1-[(4-Chloro-3-trifluoromethylphenyl)(ethyl)amino]propyl}-2-methylbenzyl)azetidine-3-carboxylic acid], 9.10.
Regarding `CCN(c1ccc(Cl)cc1)C(C)c1ccc(C)c(CN2CC(C(=O)O)C2)c1` (centres unmarked) [Compound 2-47], the pIC50 was 8.74.
To `Cc1cc(NC(C)c2ccc(C)c(CN3CC(C(=O)O)C3)c2)ccc1Cl` (centres unmarked) [Comparative Example 1, 1-{5-[1-(4-Chloro-3-methylphenylamino)ethyl]-2-methylbenzyl}azetidine-3-carboxylic acid, reference compound] belongs 6.36.
